11 compounds from patent US10004732B2 (Novartis AG, priority 2014, dated 2018) can be followed below.

Data set [1] addresses T1, PI 3-kinase alpha (Homo sapiens, UniProt P42336). The data set is described as follows: Cellular assay H1, p-Akt (S473) in Rat-1 cells, Surefire format. The conditions noted are these: non-asterisked data: version H1 (Surefire format), Rat-1 cells; read-out: Assay H PI3Kα IC50. It is filed as cell-based.
Target sequence in this assay (P42336 whole entry): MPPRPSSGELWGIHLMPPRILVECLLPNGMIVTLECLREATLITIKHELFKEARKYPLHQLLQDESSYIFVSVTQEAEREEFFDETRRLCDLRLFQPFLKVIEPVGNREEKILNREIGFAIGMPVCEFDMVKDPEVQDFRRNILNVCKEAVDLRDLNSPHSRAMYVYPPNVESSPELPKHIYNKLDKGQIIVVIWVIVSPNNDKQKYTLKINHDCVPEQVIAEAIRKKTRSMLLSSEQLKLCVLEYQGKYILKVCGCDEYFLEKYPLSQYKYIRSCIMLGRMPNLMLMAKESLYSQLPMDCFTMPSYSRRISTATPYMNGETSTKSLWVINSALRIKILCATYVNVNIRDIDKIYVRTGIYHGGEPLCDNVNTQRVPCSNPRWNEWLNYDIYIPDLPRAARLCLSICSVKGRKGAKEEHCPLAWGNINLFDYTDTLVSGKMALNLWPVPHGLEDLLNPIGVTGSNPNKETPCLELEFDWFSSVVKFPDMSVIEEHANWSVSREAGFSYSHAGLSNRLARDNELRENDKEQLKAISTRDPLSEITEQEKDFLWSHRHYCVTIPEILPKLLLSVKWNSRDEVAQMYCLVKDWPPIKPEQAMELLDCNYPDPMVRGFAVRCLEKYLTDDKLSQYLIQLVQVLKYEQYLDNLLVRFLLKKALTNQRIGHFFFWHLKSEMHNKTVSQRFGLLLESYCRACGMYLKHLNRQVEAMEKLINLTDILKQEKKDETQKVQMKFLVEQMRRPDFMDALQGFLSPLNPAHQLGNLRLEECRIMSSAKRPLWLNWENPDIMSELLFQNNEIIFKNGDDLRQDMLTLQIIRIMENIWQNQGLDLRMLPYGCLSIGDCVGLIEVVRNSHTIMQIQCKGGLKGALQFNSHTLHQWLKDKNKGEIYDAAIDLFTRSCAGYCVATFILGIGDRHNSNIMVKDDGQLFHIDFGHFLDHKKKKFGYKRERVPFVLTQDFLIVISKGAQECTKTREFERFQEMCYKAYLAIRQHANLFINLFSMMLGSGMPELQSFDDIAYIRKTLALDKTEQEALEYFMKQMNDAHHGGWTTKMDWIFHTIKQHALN
Target sequence in this assay (Q63787 whole entry partner): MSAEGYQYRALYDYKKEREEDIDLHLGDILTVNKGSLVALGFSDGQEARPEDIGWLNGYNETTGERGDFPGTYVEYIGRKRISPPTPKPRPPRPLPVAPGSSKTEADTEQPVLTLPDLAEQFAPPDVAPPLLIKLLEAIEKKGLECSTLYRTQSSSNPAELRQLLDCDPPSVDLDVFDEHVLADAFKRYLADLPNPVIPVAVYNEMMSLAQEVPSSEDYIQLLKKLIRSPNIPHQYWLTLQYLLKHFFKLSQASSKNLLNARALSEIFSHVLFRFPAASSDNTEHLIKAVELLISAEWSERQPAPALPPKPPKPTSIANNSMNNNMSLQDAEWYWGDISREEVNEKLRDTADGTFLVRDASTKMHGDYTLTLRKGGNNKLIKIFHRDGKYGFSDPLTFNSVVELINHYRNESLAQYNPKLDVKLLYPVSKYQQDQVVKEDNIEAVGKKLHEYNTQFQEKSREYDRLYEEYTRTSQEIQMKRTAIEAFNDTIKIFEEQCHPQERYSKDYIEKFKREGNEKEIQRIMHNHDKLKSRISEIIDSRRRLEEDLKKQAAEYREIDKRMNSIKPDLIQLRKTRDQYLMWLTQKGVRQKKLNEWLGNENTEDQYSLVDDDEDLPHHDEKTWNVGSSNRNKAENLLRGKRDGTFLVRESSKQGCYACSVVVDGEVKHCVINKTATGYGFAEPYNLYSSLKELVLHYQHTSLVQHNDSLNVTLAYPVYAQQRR
Another data set has as its target PI 4-kinase beta (Homo sapiens, UniProt Q9UBF8). The data set is described as follows: Kinase Glo Luminescent Kinase Assay (Kglo), assay D. It is filed as biochemical. The following applies: read-out: Assay D PI4Kβ IC50.
A further data set addresses Vps34 (Homo sapiens, UniProt Q8NEB9). The data set is described as follows: Kinase Glo Luminescent Kinase Assay (Kglo), assay C. Format: biochemical. The following applies: read-out: Assay C VPS34 IC50.
Data set [2] deals with T2, PI 3-kinase gamma (Homo sapiens, UniProt P48736). The data set is described as follows: TR-FRET Adapta assay, assay E. Format: biochemical. The following applies: read-out: Assay E PI3Kγ IC50.
T2 sequence (P48736 whole entry): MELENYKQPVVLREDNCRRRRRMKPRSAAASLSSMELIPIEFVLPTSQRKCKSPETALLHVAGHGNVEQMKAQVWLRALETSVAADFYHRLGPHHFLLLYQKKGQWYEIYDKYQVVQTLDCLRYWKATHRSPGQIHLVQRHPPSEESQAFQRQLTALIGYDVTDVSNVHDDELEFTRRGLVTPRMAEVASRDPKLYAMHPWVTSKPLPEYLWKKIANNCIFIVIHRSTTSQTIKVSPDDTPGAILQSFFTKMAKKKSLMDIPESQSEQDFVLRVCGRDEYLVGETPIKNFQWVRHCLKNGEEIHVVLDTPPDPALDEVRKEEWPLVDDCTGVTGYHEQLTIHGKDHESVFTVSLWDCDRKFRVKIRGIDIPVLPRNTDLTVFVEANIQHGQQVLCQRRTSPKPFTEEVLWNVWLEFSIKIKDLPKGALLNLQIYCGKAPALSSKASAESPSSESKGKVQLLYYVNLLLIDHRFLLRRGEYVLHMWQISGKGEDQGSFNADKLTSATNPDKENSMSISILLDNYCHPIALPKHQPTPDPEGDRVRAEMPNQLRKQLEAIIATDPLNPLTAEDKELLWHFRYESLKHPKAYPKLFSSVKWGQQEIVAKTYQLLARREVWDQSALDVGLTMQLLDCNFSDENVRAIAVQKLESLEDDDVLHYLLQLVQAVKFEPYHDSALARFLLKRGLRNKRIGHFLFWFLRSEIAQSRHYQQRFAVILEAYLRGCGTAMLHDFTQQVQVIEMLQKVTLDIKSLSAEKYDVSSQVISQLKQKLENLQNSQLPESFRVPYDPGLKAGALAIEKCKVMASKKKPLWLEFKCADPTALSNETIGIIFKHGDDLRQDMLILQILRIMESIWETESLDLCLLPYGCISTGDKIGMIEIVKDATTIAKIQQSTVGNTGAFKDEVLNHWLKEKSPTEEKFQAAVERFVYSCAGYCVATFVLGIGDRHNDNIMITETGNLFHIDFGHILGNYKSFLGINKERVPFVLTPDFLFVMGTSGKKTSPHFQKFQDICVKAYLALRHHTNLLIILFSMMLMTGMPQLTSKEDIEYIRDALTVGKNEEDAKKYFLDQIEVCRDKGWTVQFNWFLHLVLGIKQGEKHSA
Data set [3] deals with T3, PI 3-kinase beta (Homo sapiens, UniProt P42338). Kind of data set: Cellular assay I1, p-Akt (S473) in Rat-1 cells, Surefire format. Format: cell-based. The conditions noted are these: non-asterisked data: version I1 (Surefire format), Rat-1 cells; read-out: Assay I PI3Kβ IC50.
Data set [4] concerns the target T2, PI 3-kinase gamma. The data set is described as follows: Cellular U937 AKT assay K1 (MSD). It is filed as cell-based. The conditions noted are these: U937 cells, K1 format; read-out: Assay K1 PI3Kγ IC50.
Data set [5] concerns IL-8-induced neutrophil shape change in human whole blood. The data set is described as follows: Whole blood neutrophil shape change assay (L). Format: cell-based. The following applies: Homo sapiens, Neutrophil, IL-8, human whole blood, read-out: Assay L WBSC IC50.
Procedure: Whole Blood Neutrophil Shape Change Assay (L)
IL-8 was made up to 2 μM stocks in 0.1% bovine serum albumin/PBS and stored at −80° C. On the day IL-8 was diluted in PBS (phosphate buffered saline) 10 minutes before use. IL-8 was used at final concentration of 2 nM and a concentration range from 0.003 to 200 nM for the donor dose response curve.
Assay fixative solution was prepared fresh each day from 10× concentrated CellFIX™ solution diluted 1:10 in sterile distilled water and then 1:4 with PBS. Assay fixative solution was kept on ice prior to use.
A 10× lysis buffer was prepared in advance by dissolving 20.75 g NH4Cl and 2.5 g KHCO3 in 250 ml sterile H2O. This 10× lysis buffer was filtered under sterile conditions and stored for up to two weeks at 4° C. On the day a 1× lysis solution was prepared with sterile distilled H2O and kept on ice prior to use.
The test compounds were prepared as 10 mM stock solutions in 100% DMSO and were stored at 4° C. Once in use for an assay 10 mM stock compounds were thawed and stored at RT protected from light. Compound dilutions were prepared fresh on the day. The first series of dilutions in 100% DMSO were done first thing in the morning. Only once blood had been collected and arrived in laboratory was the next set of dilutions into PBS carried out (1:10 PBS, 10% DMSO). This limited the exposure of diluted compound to plastic and made sure the exposure timing was consistent between assays.
Compound dilutions in 100% DMSO were prepared as described previously. Human whole blood was collected in K2 EDTA Vacutainers. Once blood was in the laboratory, compound dilutions into PBS were carried out as described previously and depicted in Table 1.
The outer wells of the deep well assay plate were filled with 1200 μl of sterile distilled H2O in an effort to limit edge effects (rows A1-H1, A1-A12, A12-H12).
An IL-8 dose response was determined for each blood donor examined, to monitor the donor response to IL-8. At this step in assay preparation for the IL-8 dose response samples 10 μl of PBS was added to designated wells. In addition the assay window without DMSO was also assessed each day. For such samples at this step in assay preparation 10 μl of PBS was added in the place of 10% DMSO.
Lids were placed on the 96 well plates and samples were incubated for 15 minutes at 37° C. in a water-bath.
Following the compound pre-incubation 10× final IL-8 was added to appropriate wells (10 μl of 20 nM working stock IL-8, final IL-8 concentration in blood=2 nM) and 10 μl of PBS was added to the un-stimulated controls. 10× final dose response range IL-8 was also added to designated wells (final concentration range on assay plate was 200 nM to 0.0005 nM, 1:5 serial dilution in PBS). The IL-8 and PBS were added to appropriate wells across all assay plates in the same sequence as the blood to compound addition. […] Samples were incubated for 5 minutes at 37° C. in a water-bath. Following the incubation sample plates were transferred to ice where 250 μl of chilled Assay Fixative Buffer was added promptly to all wells.
Samples were incubated on ice for 7 minutes (no mixing). […] Once added samples were mixed once and incubated on ice for 30 minutes to achieve uniform red blood cells lysis. After lysis, 200 μl of sample was transferred to a 96 well microplate on ice. […] Granulocytes were identified based on differential side scatter (SSC) and forward scatter (FSC) characteristics.
For data set [6], the target named is T1, PI 3-kinase alpha. The data set is described as follows: Kinase Glo Luminescent Kinase Assay (Kglo), assay A. Format: biochemical. The following applies: read-out: Assay A PI3Kα IC50.
Target sequence in this assay (P42336 whole entry): as the sequence (P42336 whole entry) above
Data set [7] deals with T4, PI 3-kinase delta (Homo sapiens, UniProt O00329). The data set is described as follows: TR-FRET Adapta assay, assay F. The conditions noted are these: read-out: Assay F PI3Kδ IC50.
The target of data set [8] is T4, PI 3-kinase delta. The data set is described as follows: Cellular assay J1, p-Akt (S473) in Rat-1 cells, Surefire format. The following applies: non-asterisked data: version J1 (Surefire format), Rat-1 cells; read-out: Assay J PI3Kδ IC50. It is filed as cell-based.
The target in the next data set is mTOR (Homo sapiens, UniProt P42345). The data set is described as follows: Lanthascreen kinase binding assay, assay G. The conditions noted are these: read-out: Assay G mTOR IC50.
Data set [9] can be described thus: Microsomal clearance assay (M). The following applies: intrinsic clearance in rat liver microsomes.
Procedure: The experiments were performed in 96-well glass plates at 37° C. on an automated Tecan EVO platform. Test compounds at a concentration of 10 mM in pure DMSO were diluted 1:1000 in water to 10 μM. […] Reactions were initiated by the addition of 150 μL of a cofactor solution containing 2 mM NADPH.
Data set [10] has as its target T3, PI 3-kinase beta. The data set is described as follows: Kinase Glo Luminescent Kinase Assay (Kglo), assay B. The following applies: read-out: Assay B PI3Kβ IC50. It is filed as biochemical.

Where a name gives a salt, the structure may show the parent alone. Some results are limits rather than exact numbers.

Sequence of PI 4-kinase beta (Q9UBF8 whole entry): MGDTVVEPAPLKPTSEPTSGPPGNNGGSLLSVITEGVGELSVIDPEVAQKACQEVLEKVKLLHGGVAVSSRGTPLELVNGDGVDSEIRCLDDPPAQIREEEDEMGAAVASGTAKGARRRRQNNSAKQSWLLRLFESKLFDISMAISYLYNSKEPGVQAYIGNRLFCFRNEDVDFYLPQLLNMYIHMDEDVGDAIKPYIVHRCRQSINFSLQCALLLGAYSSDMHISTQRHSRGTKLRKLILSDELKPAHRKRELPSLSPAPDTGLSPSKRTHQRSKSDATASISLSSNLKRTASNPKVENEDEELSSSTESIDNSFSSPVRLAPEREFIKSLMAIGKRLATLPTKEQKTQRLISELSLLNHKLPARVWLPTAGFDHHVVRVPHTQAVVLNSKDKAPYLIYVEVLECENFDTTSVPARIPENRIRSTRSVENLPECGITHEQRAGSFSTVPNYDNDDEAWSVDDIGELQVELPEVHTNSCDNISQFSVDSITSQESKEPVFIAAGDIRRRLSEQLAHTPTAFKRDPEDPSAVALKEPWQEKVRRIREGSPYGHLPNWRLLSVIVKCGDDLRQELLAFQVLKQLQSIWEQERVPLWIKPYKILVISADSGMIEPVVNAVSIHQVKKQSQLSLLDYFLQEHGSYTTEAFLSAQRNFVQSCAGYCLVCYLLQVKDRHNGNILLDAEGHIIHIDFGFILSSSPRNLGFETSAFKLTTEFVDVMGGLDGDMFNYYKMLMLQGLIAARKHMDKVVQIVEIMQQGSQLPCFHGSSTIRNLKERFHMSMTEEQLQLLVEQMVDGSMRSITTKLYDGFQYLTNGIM
Sequence of Vps34 (Q8NEB9 whole entry, species assumed): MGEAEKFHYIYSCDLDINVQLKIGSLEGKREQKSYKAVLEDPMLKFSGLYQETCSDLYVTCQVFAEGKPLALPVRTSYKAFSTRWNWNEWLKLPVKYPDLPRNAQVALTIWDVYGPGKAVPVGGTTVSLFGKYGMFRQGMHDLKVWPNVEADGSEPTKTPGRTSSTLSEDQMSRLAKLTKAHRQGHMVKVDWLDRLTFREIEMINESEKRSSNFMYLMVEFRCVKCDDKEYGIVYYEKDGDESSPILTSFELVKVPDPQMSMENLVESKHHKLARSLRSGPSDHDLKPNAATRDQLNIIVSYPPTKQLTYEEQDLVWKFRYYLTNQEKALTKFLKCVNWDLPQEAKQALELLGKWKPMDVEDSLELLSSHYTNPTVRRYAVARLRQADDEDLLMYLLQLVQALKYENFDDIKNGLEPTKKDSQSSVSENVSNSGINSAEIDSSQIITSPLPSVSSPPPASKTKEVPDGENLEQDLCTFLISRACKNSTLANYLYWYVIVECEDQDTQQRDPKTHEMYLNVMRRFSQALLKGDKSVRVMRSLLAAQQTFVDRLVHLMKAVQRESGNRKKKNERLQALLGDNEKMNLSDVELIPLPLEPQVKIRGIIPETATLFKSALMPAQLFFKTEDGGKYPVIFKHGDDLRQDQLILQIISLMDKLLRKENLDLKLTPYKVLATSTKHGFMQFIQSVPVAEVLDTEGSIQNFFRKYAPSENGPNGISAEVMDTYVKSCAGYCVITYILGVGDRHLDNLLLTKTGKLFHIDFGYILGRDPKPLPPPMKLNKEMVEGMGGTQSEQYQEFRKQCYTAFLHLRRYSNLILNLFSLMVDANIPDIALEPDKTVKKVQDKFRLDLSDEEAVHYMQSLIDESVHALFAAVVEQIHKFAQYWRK
Procedure for PI 4-kinase beta: Kinase Glo Luminescent Kinase Assay (Kglo) for Pb 3-Kinase Alpha (A), Pb 3-Kinase Beta (B), Vps34 (C), Pb 4-Kinase Beta (D)
The Kinase Glo Luminescent Kinase Assay (Promega, Madison/Wis., USA) is a homogeneous HTS method of measuring kinase activity by quantifying the amount of ATP remaining in solution following a kinase reaction.
L-α-phosphatidylinositol (PI), provided as 10 mg/ml solution in methanol, was transferred into a glass tube and dried under a nitrogen beam. It was then resuspended in 3% OctylGlucoside (1-0-n-octyl-beta-D-glucopyranoside) by vortexing and stored at 4° C. 5 μL of a mix of PI/OctylGlucoside with the PI 3-kinase alpha and PI 3-kinase beta subtypes, or Vps34 or PI 4-kinase beta were added. Kinase reactions were started by the addition of 5 μl of an ATP-mix containing in a final volume 10 μL 10 mM TRIS-HCl pH 7.5, 3 mM MgCl2, 50 mM NaCl, 0.05% CHAPS, 1 mM DTT and 1 μM ATP at room temperature.
All fits were performed with the program XLfit4 (ID Business Solutions, Guildford, UK).
Procedure for mTOR: Lanthascreen™ Kinase Binding Assay for mTOR (G)
Binding of an inhibitor to the kinase competes for binding with the tracer, resulting in a loss of FRET.
50 nL of compound dilutions were dispensed onto white 384-well small volume polystyrene plate.

For the compound `CCCc1noc(-c2nc(-c3cc(S(=O)(=O)N[C@H]4CC[C@H](O)CC4)ccc3C)cnc2N)n1` [Example 140, Trans-3-[5-Amino-6-(3-propyl-[1,2,4]oxadiazol-5-yl)-pyrazin-2-yl]-N-(4-hydroxy-cyclohexyl)-4-methyl-benzene sulfonamide], the IC50 on PI 3-kinase alpha [1] was 1110 nM; at PI 4-kinase beta, greater than 9100 nM; on Vps34 it was greater than 9100 nM; on PI 3-kinase gamma [2], 16 nM; at PI 3-kinase beta [3], 6380 nM; at PI 3-kinase gamma [4], 51 nM. In addition, the concentration for half-maximal inhibition (IC50) in data set [5] was 817 nM; at PI 3-kinase alpha [6], 240 nM; on PI 3-kinase delta [7], 90 nM; on PI 3-kinase delta [8] it was 840 nM; on mTOR it was 8820 nM; on PI 3-kinase beta [10], 7160 nM. For the same compound, in data set [9], the “Assay M RLM CI(int)” value is 82 µL/min/mg.
With `Cc1cc(F)c(S(=O)(=O)NCCCO)cc1-c1cnc(N)c(-c2cnn(C)c2)n1` [Example 114, 5-(5-Amino-6-(1-methyl-1H-pyrazol-4-yl)pyrazin-2-yl)-2-fluoro-N-(3-hydroxypropyl)-4-methylbenzenesulfonamide], the IC50 at PI 3-kinase alpha [1] is 5430 nM; at PI 4-kinase beta, 5900 nM; at Vps34, 7830 nM; at PI 3-kinase gamma [2] it was 44 nM; at PI 3-kinase beta [3] it was greater than 3000 nM; on PI 3-kinase gamma [4], 177 nM. The concentration for half-maximal inhibition (IC50) in data set [5] is 499 nM; on PI 3-kinase alpha [6], 290 nM; at PI 3-kinase delta [7] it was 1190 nM; on PI 3-kinase delta [8], 7990 nM; at mTOR, greater than 9100 nM; on PI 3-kinase beta [10] it was 3700 nM. The “Assay M RLM CI(int)” value in data set [9] worked out at 17 µL/min/mg.
Consider `Cc1cnn(-c2nc(-c3cc(S(=O)(=O)N[C@H]4CC[C@H](O)CC4)ccc3C)cnc2N)c1` [Example 111, 3-(5-Amino-6-(4-methyl-1H-pyrazol-1-yl)pyrazin-2-yl)-N-((1r,4r)-4-hydroxycyclohexyl)-4-methylbenzenesulfonamide], for which the IC50 was 1470 nM at PI 3-kinase alpha [1]; 1960 nM on PI 4-kinase beta; greater than 9100 nM on Vps34; 18 nM on PI 3-kinase gamma [2]; greater than 10000 nM at PI 3-kinase beta [3]; 20 nM on PI 3-kinase gamma [4]. The IC50 in data set [5] was 637 nM; at PI 3-kinase alpha [6], 180 nM; at PI 3-kinase delta [7], 60 nM; on PI 3-kinase delta [8], 460 nM; at mTOR, greater than 9100 nM; on PI 3-kinase beta [10], 1980 nM. Also, the “Assay M RLM CI(int)” value in data set [9] was determined as 74 µL/min/mg.
In the case of `Cc1nnc(-c2nc(-c3cc(S(=O)(=O)N[C@H]4CC[C@H](O)CC4)ccc3C)cnc2N)o1` [Example 1, Trans-3-[5-Amino-6-(5-methyl-[1,3,4]oxadiazol-2-yl)-pyrazin-2-yl]-N-(4-hydroxy-cyclohexyl)-4-methyl-benzenesulfonamide], the IC50 at PI 3-kinase alpha [1] was 9360 nM; on PI 4-kinase beta, greater than 9100 nM; at Vps34 it was greater than 9100 nM; on PI 3-kinase gamma [2] it was 15 nM; on PI 3-kinase beta [3] it was greater than 10000 nM; on PI 3-kinase gamma [4], 504 nM. Moreover, the concentration for half-maximal inhibition (IC50) in data set [5] is 803 nM; on PI 3-kinase alpha [6], 1300 nM; at PI 3-kinase delta [7], 1010 nM; at PI 3-kinase delta [8], 7420 nM. The “Assay M RLM CI(int)” value in data set [9] was less than 3.4 µL/min/mg.
Regarding `Cc1ccc(S(=O)(=O)NOC2CCOC2)cc1-c1cnc(N)c(-n2cncn2)n1` (centres unmarked) [Example 112.5, 3-(5-Amino-6-(1H-1,2,4-triazol-1-yl)pyrazin-2-yl)-4-methyl-N-((tetrahydrofuran-3-yl)oxy)benzenesulfonamide], the IC50 on PI 3-kinase alpha [1] is 130 nM; on PI 4-kinase beta it was 3000 nM; on Vps34, greater than 10000 nM; on PI 3-kinase beta [3] it was greater than 10000 nM; at PI 3-kinase gamma [4], 36 nM; in [5] it was 970 nM. Besides, the half-maximal inhibitory concentration (IC50) at PI 3-kinase alpha [6] worked out at 120 nM; on PI 3-kinase delta [7], 530 nM; at PI 3-kinase delta [8] it was 830 nM; on mTOR it was 1830 nM; at PI 3-kinase beta [10] it was 2250 nM. Moreover, the “Assay M RLM CI(int)” value in data set [9] was 40 µL/min/mg.
In the case of `Cc1ccc(S(=O)(=O)NCCC(C)(C)O)cc1-c1cnc(N)c(-c2cn(C)nc2C)n1` [Example 12, 3-(5-Amino-6-(1,3-dimethyl-1H-pyrazol-4-yl)pyrazin-2-yl)-N-(3-hydroxy-3-methylbutyl)-4-methyl benzenesulfonamide], the concentration for half-maximal inhibition (IC50) was 4700 nM on PI 3-kinase alpha [1]; greater than 9100 nM at PI 4-kinase beta; greater than 9100 nM at Vps34; 41 nM at PI 3-kinase gamma [2]; greater than 10000 nM at PI 3-kinase beta [3]; 117 nM at PI 3-kinase gamma [4]. The IC50 in data set [5] is 200 nM; on PI 3-kinase alpha [6], 140 nM; on PI 3-kinase delta [7], 240 nM; at PI 3-kinase delta [8], 3410 nM; at mTOR it was greater than 9100 nM; at PI 3-kinase beta [10] it was 2650 nM.
Turning to `CCc1noc(-c2nc(-c3cc(S(=O)(=O)N[C@H]4CC[C@H](O)CC4)ccc3C)cnc2N)n1` [Example 139, Trans-3-[5-Amino-6-(3-ethyl-[1,2,4]oxadiazol-5-yl)-pyrazin-2-yl]-N-(4-hydroxy-cyclohexyl)-4-methyl-benzene sulfonamide], the IC50 at PI 3-kinase alpha [1] was 1080 nM; on PI 4-kinase beta it was greater than 9100 nM; on Vps34 it was greater than 9100 nM; at PI 3-kinase gamma [2], 16 nM; at PI 3-kinase beta [3] it was 7960 nM; on PI 3-kinase gamma [4] it was 102 nM. The IC50 in data set [5] worked out at 565 nM; on PI 3-kinase alpha [6], 540 nM; at PI 3-kinase delta [7], 160 nM; at PI 3-kinase delta [8], 970 nM; on mTOR it was 8300 nM; at PI 3-kinase beta [10] it was 8390 nM.
For `Cc1noc(-c2nc(-c3cc(S(=O)(=O)N[C@H]4CC[C@H](O)CC4)ccc3C)cnc2N)n1` [Example 2, Trans-3-[5-Amino-6-(3-methyl-[1,2,4]oxadiazol-5-yl)-pyrazin-2-yl]-N-(4-hydroxy-cyclohexyl)-4-methyl-benzenesulfonamide], the IC50 on PI 3-kinase alpha [1] is 3180 nM; on PI 4-kinase beta it was greater than 9100 nM; at Vps34 it was greater than 9100 nM; at PI 3-kinase gamma [2] it was 3 nM; at PI 3-kinase beta [3], greater than 10000 nM; on PI 3-kinase gamma [4] it was 147 nM. For the same compound, the IC50 in data set [5] was 687 nM; on PI 3-kinase alpha [6], 820 nM; on PI 3-kinase delta [7], 390 nM; on PI 3-kinase delta [8], 1070 nM; on mTOR, greater than 9100 nM. Also, the “Assay M RLM CI(int)” value in data set [9] came out at 25 µL/min/mg.
Take `CCCn1cc(-c2nc(-c3cc(S(=O)(=O)NCCC(C)(C)O)ccc3C)cnc2N)cn1` [Example 119.25]: the IC50 at PI 3-kinase alpha [1] was 1280 nM; on PI 4-kinase beta it was 4050 nM; at Vps34 it was greater than 9100 nM; on PI 3-kinase gamma [2], 31 nM; at PI 3-kinase beta [3], 4100 nM; at PI 3-kinase gamma [4], 65 nM. Further, the IC50 in data set [5] was 2090 nM; at PI 3-kinase alpha [6], 400 nM; at PI 3-kinase delta [7] it was 290 nM; at PI 3-kinase delta [8] it was 1200 nM; on mTOR it was 8740 nM; at PI 3-kinase beta [10], 5780 nM.
Turning to `Cc1ccc(S(=O)(=O)NCCC(C)(C)O)cc1-c1cnc(N)c(-c2cnn(Cc3ccccc3)c2)n1` [Example 132, 3-(5-Amino-6-(1-benzyl-1H-pyrazol-4-yl)pyrazin-2-yl)-N-(3-hydroxy-3-methylbutyl)-4-methylbenzenesulfonamide hydrochloride], the IC50 on PI 3-kinase alpha [1] was 1280 nM; at PI 4-kinase beta it was 2260 nM; at Vps34, greater than 9100 nM; on PI 3-kinase gamma [2] it was 17 nM; on PI 3-kinase beta [3], 6050 nM; at PI 3-kinase gamma [4], 74 nM. The IC50 in data set [5] was 449 nM; at PI 3-kinase alpha [6] it was 180 nM; at PI 3-kinase delta [7] it was 50 nM; on PI 3-kinase delta [8], 350 nM; on mTOR, greater than 9100 nM; on PI 3-kinase beta [10], greater than 9100 nM.
For the compound `Cc1ccc(S(=O)(=O)N[C@H]2CC[C@H](O)CC2)cc1-c1cnc(N)c(-c2nc(C(C)C)no2)n1` [Example 23, 3-[5-Amino-6-(3-isopropyl-[1,2,4]oxadiazol-5-yl)-pyrazin-2-yl]-N-(4-hydroxy-cyclohexyl)-4-methyl-benzene sulfonamide], the IC50 was 3010 nM at PI 3-kinase alpha [1]; greater than 9100 nM at PI 4-kinase beta; greater than 9100 nM at Vps34; 10 nM at PI 3-kinase gamma [2]; 6460 nM at PI 3-kinase beta [3]; 106 nM at PI 3-kinase gamma [4]. Besides, the half-maximal inhibitory concentration (IC50) in [5] was 447 nM; on PI 3-kinase alpha [6] it was 390 nM; on PI 3-kinase delta [7] it was 90 nM; on PI 3-kinase delta [8], 1010 nM; on mTOR, 6450 nM; on PI 3-kinase beta [10], greater than 9100 nM.
